# Results reported in the CheMixHub viscosity set.
# Several values for one entry are separate records, joined by “and”; a condition that tells them apart may be missing. Equal values may be shown once. ± gives the uncertainty stated by the source.
# Test: xn = mol fraction of the nth substance listed
structure (smiles),measurement,setting,value
C[N+](C)(C)CCO.[Cl-] + OCCO,viscosity,"293.15 K, 100 kPa, x1 = 0.333",40.01 ± 0.53 mPa·s
same,viscosity,"293.15 K, 100 kPa, x1 = 0.34",59.14 ± 2.4 mPa·s
same,viscosity,"293.15 K, 101 kPa, x1 = 0.333",42.3 ± 3.4 mPa·s
same,viscosity,"293.15 K, 101 kPa, x2 = 0.7",56.22 ± 1.2 mPa·s
same,viscosity,"293.15 K, 101.3 kPa, x2 = 0.6675",60 ± 2.5 mPa·s
same,viscosity,"293.15 K, 101.3 kPa, x2 = 0.7",53.07 ± 0.32 mPa·s
same,viscosity,"293.15 K, 101.3 kPa, x2 = 0.7499",37.35 ± 1.6 mPa·s
same,viscosity,"293.15 K, 101.3 kPa, x2 = 0.7999",31.8 ± 1.3 mPa·s
same,viscosity,"293.15 K, 101.3 kPa, x2 = 0.8332",28.49 ± 1.2 mPa·s
same,viscosity,"293.15 K, 101.3 kPa, x2 = 0.8571",25.56 ± 1.1 mPa·s
same,viscosity,"298 K, 100 kPa, x1 = 0.333",45.1 ± 3.7 mPa·s
same,viscosity,"298 K, 101 kPa, x1 = 0.333",42 ± 3 mPa·s
same,viscosity,"298.15 K, 100 kPa, x1 = 0.333",41 ± 1 mPa·s and 32.73 ± 0.44 mPa·s
same,viscosity,"298.15 K, 100 kPa, x1 = 0.34",47.74 ± 1.9 mPa·s
same,viscosity,"298.15 K, 101 kPa, x1 = 0.2",20.1 ± 0.8 mPa·s
same,viscosity,"298.15 K, 101 kPa, x1 = 0.333",35.1 ± 1.4 mPa·s
same,viscosity,"298.15 K, 101.1 kPa, x1 = 0.333",39.45 ± 8.3 mPa·s
same,viscosity,"298.15 K, 101.3 kPa, x2 = 0.6675",48.59 ± 2 mPa·s
same,viscosity,"298.15 K, 101.3 kPa, x2 = 0.7",43.03 ± 0.49 mPa·s
same,viscosity,"298.15 K, 101.3 kPa, x2 = 0.7499",31.12 ± 1.3 mPa·s
same,viscosity,"298.15 K, 101.3 kPa, x2 = 0.7999",26.21 ± 1.1 mPa·s
same,viscosity,"298.15 K, 101.3 kPa, x2 = 0.8332",23.36 ± 0.97 mPa·s
same,viscosity,"298.15 K, 101.3 kPa, x2 = 0.8571",20.93 ± 0.87 mPa·s
same,viscosity,"298.15 K, 101.33 kPa, x2 = 0.7",48 ± 5 mPa·s
same,viscosity,"298.2 K, 101.3 kPa, x1 = 0.1247",20.5 ± 0.8 mPa·s
same,viscosity,"298.2 K, 101.3 kPa, x1 = 0.1675",23.2 ± 0.9 mPa·s
same,viscosity,"298.2 K, 101.3 kPa, x1 = 0.2",24.5 ± 1 mPa·s
same,viscosity,"298.2 K, 101.3 kPa, x1 = 0.2513",27.2 ± 1.1 mPa·s
same,viscosity,"303 K, 100 kPa, x1 = 0.333",36.8 ± 3 mPa·s
same,viscosity,"303 K, 101 kPa, x1 = 0.3333",51.8 ± 1.5 mPa·s
same,viscosity,"303.15 K, 100 kPa, x1 = 0.333",27.13 ± 0.36 mPa·s and 52.15 ± 2.1 mPa·s
same,viscosity,"303.15 K, 100 kPa, x1 = 0.34",39.1 ± 1.6 mPa·s
same,viscosity,"303.15 K, 101 kPa, x1 = 0.333",33.1 ± 2.7 mPa·s
same,viscosity,"303.15 K, 101 kPa, x2 = 0.7",35 ± 10 mPa·s and 37.15 ± 0.78 mPa·s
same,viscosity,"303.15 K, 101.3 kPa, x2 = 0.6675",39.78 ± 1.7 mPa·s
same,viscosity,"303.15 K, 101.3 kPa, x2 = 0.7",35.06 ± 0.4 mPa·s
same,viscosity,"303.15 K, 101.3 kPa, x2 = 0.7499",25.72 ± 1.1 mPa·s
same,viscosity,"303.15 K, 101.3 kPa, x2 = 0.7999",21.7 ± 0.9 mPa·s
same,viscosity,"303.15 K, 101.3 kPa, x2 = 0.8332",19.36 ± 0.8 mPa·s
same,viscosity,"303.15 K, 101.3 kPa, x2 = 0.8571",17.34 ± 0.72 mPa·s
same,viscosity,"308 K, 100 kPa, x1 = 0.333",30.8 ± 2.5 mPa·s
same,viscosity,"308 K, 101 kPa, x1 = 0.3333",45.7 ± 1 mPa·s
same,viscosity,"308.15 K, 100 kPa, x1 = 0.333",22.76 ± 0.3 mPa·s
same,viscosity,"308.15 K, 100 kPa, x1 = 0.34",32.42 ± 1.3 mPa·s
same,viscosity,"308.15 K, 101 kPa, x1 = 0.3333",30.9 ± 1 mPa·s
same,viscosity,"308.15 K, 101.3 kPa, x2 = 0.6675",33.15 ± 1.4 mPa·s
same,viscosity,"308.15 K, 101.3 kPa, x2 = 0.7",29.02 ± 0.33 mPa·s
same,viscosity,"308.15 K, 101.3 kPa, x2 = 0.7499",21.63 ± 0.91 mPa·s
same,viscosity,"308.15 K, 101.3 kPa, x2 = 0.7999",18.29 ± 0.75 mPa·s
same,viscosity,"308.15 K, 101.3 kPa, x2 = 0.8332",16.22 ± 0.67 mPa·s
same,viscosity,"308.15 K, 101.3 kPa, x2 = 0.8571",14.52 ± 0.6 mPa·s
same,viscosity,"308.2 K, 101.3 kPa, x1 = 0.1247",15.3 ± 0.6 mPa·s
same,viscosity,"308.2 K, 101.3 kPa, x1 = 0.1675",17.4 ± 0.7 mPa·s
same,viscosity,"308.2 K, 101.3 kPa, x1 = 0.2",18.6 ± 0.8 mPa·s
same,viscosity,"308.2 K, 101.3 kPa, x1 = 0.2513",20.7 ± 0.8 mPa·s
same,viscosity,"313 K, 100 kPa, x1 = 0.333",26 ± 2.1 mPa·s
same,viscosity,"313 K, 101 kPa, x1 = 0.333",23 ± 2 mPa·s
same,viscosity,"313 K, 101 kPa, x1 = 0.3333",40.7 ± 0.9 mPa·s
same,viscosity,"313.15 K, 100 kPa, x1 = 0.333",19.32 ± 0.26 mPa·s and 41.27 ± 1.7 mPa·s
same,viscosity,"313.15 K, 100 kPa, x1 = 0.34",27.44 ± 1.1 mPa·s
same,viscosity,"313.15 K, 101 kPa, x1 = 0.333",26.3 ± 2.1 mPa·s
same,viscosity,"313.15 K, 101 kPa, x1 = 0.3333",25.8 ± 0.8 mPa·s
same,viscosity,"313.15 K, 101 kPa, x2 = 0.7",25.84 ± 0.53 mPa·s
same,viscosity,"313.15 K, 101.3 kPa, x2 = 0.6675",27.77 ± 1.2 mPa·s
same,viscosity,"313.15 K, 101.3 kPa, x2 = 0.7",24.22 ± 0.27 mPa·s
same,viscosity,"313.15 K, 101.3 kPa, x2 = 0.7499",18.27 ± 0.77 mPa·s
same,viscosity,"313.15 K, 101.3 kPa, x2 = 0.7999",15.52 ± 0.64 mPa·s
same,viscosity,"313.15 K, 101.3 kPa, x2 = 0.8332",13.72 ± 0.57 mPa·s
same,viscosity,"313.15 K, 101.3 kPa, x2 = 0.8571",12.3 ± 0.51 mPa·s
same,viscosity,"318 K, 100 kPa, x1 = 0.333",21.6 ± 1.7 mPa·s
same,viscosity,"318 K, 101 kPa, x1 = 0.3333",36.4 ± 0.8 mPa·s
same,viscosity,"318.15 K, 100 kPa, x1 = 0.333",16.57 ± 0.22 mPa·s
same,viscosity,"318.15 K, 100 kPa, x1 = 0.34",23.03 ± 0.93 mPa·s
same,viscosity,"318.15 K, 101 kPa, x1 = 0.2",10.5 ± 0.4 mPa·s
same,viscosity,"318.15 K, 101 kPa, x1 = 0.333",15.6 ± 0.7 mPa·s
same,viscosity,"318.15 K, 101 kPa, x1 = 0.3333",21.9 ± 0.7 mPa·s
same,viscosity,"318.15 K, 101.3 kPa, x2 = 0.6675",23.61 ± 0.98 mPa·s
same,viscosity,"318.15 K, 101.3 kPa, x2 = 0.7",20.47 ± 0.23 mPa·s
same,viscosity,"318.15 K, 101.3 kPa, x2 = 0.7499",15.68 ± 0.66 mPa·s
same,viscosity,"318.15 K, 101.3 kPa, x2 = 0.7999",13.3 ± 0.55 mPa·s
same,viscosity,"318.15 K, 101.3 kPa, x2 = 0.8332",11.67 ± 0.48 mPa·s
same,viscosity,"318.15 K, 101.3 kPa, x2 = 0.8571",10.51 ± 0.44 mPa·s
same,viscosity,"318.2 K, 101.3 kPa, x1 = 0.1247",11.4 ± 0.5 mPa·s
same,viscosity,"318.2 K, 101.3 kPa, x1 = 0.1675",13.1 ± 0.5 mPa·s
same,viscosity,"318.2 K, 101.3 kPa, x1 = 0.2",14.2 ± 0.6 mPa·s
same,viscosity,"318.2 K, 101.3 kPa, x1 = 0.2513",16.3 ± 0.7 mPa·s
same,viscosity,"323 K, 100 kPa, x1 = 0.333",18.8 ± 1.5 mPa·s
same,viscosity,"323 K, 101 kPa, x1 = 0.333",16 ± 1 mPa·s
same,viscosity,"323 K, 101 kPa, x1 = 0.3333",32.8 ± 0.7 mPa·s
same,viscosity,"323.15 K, 100 kPa, x1 = 0.333",14.33 ± 0.19 mPa·s and 33.33 ± 1.4 mPa·s
same,viscosity,"323.15 K, 101 kPa, x1 = 0.333",21.2 ± 1.7 mPa·s
same,viscosity,"323.15 K, 101 kPa, x1 = 0.3333",18.8 ± 0.6 mPa·s
same,viscosity,"323.15 K, 101.3 kPa, x2 = 0.6675",20.3 ± 0.84 mPa·s
same,viscosity,"323.15 K, 101.3 kPa, x2 = 0.7",17.41 ± 0.2 mPa·s
same,viscosity,"323.15 K, 101.3 kPa, x2 = 0.7499",13.57 ± 0.57 mPa·s
same,viscosity,"323.15 K, 101.3 kPa, x2 = 0.7999",11.5 ± 0.48 mPa·s
same,viscosity,"323.15 K, 101.3 kPa, x2 = 0.8332",9.98 ± 0.41 mPa·s
same,viscosity,"323.15 K, 101.3 kPa, x2 = 0.8571",9.07 ± 0.38 mPa·s
